“And” between values parts separate entries of the source, which are not always exact repeats. Equal entries are not always repeated.
Legend:
Test in all cases: Kinase selectivity profile assay
Format in all cases: biochemical
SGK3/SGKL = molecular target: T1, SGK3/SGKL (Homo sapiens, UniProt Q96BR1); settings: 500 nM; relative to DMSO; read-out: Residual enzymatic activity
T1 construct: purchased Reaction Biology Corporation
Method in brief: (§1)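 Radiometric kinase assay run by a standard protocol. Unbound phosphate was removed by washing filters in phosphoric acid, and product radioactivity gave percent remaining kinase activity versus DMSO vehicle reactions. Run in duplicate.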

MST1/STK4 = molecular target: T2, MST1/STK4 (Homo sapiens, UniProt Q13043); settings: 500 nM; relative to DMSO; read-out: Residual enzymatic activity
T2 construct: purchased Reaction Biology Corporation
Method in brief: as §1

MEKK1 = molecular target: T3, MEKK1 (Homo sapiens, UniProt Q13233); settings: 500 nM; relative to DMSO; read-out: Residual enzymatic activity
T3 construct: purchased Reaction Biology Corporation
Method in brief: as §1

RSK4 = molecular target: T4, RSK4 (Homo sapiens, UniProt Q9UK32); settings: 500 nM; relative to DMSO; read-out: Residual enzymatic activity
T4 construct: purchased Reaction Biology Corporation
Method in brief: as §1

CDK1/cyclin E = molecular target: T5, CDK1/cyclin E (Homo sapiens, UniProt P06493); settings: 500 nM; relative to DMSO; read-out: Residual enzymatic activity
T5 construct: purchased Reaction Biology Corporation
Method in brief: as §1

FAK/PTK2 = molecular target: T6, FAK/PTK2 (Homo sapiens, UniProt Q05397); settings: 500 nM; relative to DMSO; read-out: Residual enzymatic activity
T6 construct: purchased Reaction Biology Corporation
Method in brief: as §1

MRCKb/CDC42BPB = molecular target: T7, MRCKb/CDC42BPB (Homo sapiens, UniProt Q9Y5S2); settings: 500 nM; relative to DMSO; read-out: Residual enzymatic activity
T7 construct: purchased Reaction Biology Corporation
Method in brief: as §1

MLK2/MAP3K10 = molecular target: T8, MLK2/MAP3K10 (Homo sapiens, UniProt Q02779)
T8 construct: purchased Reaction Biology Corporation (assay service)
T8 sequence (Q02779 whole entry): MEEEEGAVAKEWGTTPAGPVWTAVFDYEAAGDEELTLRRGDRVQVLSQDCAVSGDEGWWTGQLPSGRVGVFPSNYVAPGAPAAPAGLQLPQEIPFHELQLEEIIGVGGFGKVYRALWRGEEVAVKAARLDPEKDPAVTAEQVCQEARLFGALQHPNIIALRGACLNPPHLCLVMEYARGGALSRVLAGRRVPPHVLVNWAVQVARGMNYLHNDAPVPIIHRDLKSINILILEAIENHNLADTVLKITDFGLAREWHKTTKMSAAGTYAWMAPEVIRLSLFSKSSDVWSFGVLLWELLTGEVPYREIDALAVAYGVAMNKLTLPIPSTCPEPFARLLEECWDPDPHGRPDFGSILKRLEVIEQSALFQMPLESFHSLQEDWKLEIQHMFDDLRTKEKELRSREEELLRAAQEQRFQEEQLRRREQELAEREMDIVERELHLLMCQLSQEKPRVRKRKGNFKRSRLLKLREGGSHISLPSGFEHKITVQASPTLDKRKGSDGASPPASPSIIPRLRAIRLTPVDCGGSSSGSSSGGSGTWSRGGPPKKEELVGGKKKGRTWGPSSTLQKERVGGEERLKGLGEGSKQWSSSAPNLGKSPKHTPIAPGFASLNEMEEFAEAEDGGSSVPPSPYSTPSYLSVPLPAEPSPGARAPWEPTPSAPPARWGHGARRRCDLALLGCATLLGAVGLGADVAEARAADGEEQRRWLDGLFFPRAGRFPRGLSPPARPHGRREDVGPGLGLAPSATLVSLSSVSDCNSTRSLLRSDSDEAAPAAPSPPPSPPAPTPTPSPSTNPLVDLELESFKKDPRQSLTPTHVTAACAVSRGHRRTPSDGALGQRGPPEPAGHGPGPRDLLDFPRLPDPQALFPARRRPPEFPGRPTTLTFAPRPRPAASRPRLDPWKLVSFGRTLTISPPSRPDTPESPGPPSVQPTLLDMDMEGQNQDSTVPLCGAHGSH
Method in brief: as §1

DYRK2 = molecular target: T9, DYRK2 (Homo sapiens, UniProt Q92630); settings: 500 nM; relative to DMSO; read-out: Residual enzymatic activity
T9 construct: purchased Reaction Biology Corporation
Method in brief: as §1

PDK1/PDPK1 = molecular target: T10, PDK1/PDPK1 (Homo sapiens, UniProt O15530); settings: 500 nM; relative to DMSO; read-out: Residual enzymatic activity
T10 construct: purchased Reaction Biology Corporation
Method in brief: as §1

p70S6Kb/RPS6KB2 = molecular target: T11, p70S6Kb/RPS6KB2 (Homo sapiens, UniProt Q9UBS0); settings: 500 nM; relative to DMSO; read-out: Residual enzymatic activity
T11 construct: purchased Reaction Biology Corporation
Method in brief: as §1

LIMK1 = molecular target: T12, LIMK1 (Homo sapiens, UniProt P53667)
T12 construct: purchased Reaction Biology Corporation (assay service)
T12 sequence (P53667 whole entry): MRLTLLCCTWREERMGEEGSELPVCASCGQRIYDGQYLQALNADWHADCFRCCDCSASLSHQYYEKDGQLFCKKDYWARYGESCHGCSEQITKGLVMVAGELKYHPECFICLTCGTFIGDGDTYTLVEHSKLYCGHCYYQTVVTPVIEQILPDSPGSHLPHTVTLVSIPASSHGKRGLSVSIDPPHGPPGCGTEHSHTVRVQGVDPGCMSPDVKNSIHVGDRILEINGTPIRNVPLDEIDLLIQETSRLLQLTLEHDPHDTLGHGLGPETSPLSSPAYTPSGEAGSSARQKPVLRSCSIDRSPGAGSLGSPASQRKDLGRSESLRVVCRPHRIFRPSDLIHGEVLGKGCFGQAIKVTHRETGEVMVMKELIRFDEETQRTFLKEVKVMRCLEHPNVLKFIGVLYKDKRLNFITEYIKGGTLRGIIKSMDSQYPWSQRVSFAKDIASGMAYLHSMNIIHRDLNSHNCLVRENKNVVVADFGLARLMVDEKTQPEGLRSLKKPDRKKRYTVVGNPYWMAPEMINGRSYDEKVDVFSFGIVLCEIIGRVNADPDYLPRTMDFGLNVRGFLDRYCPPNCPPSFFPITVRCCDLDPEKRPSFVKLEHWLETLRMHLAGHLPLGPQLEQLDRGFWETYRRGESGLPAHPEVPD
Method in brief: as §1

CDK1/cyclin A = molecular target: T13, CDK1/cyclin A (Homo sapiens, UniProt P06493); settings: 500 nM; relative to DMSO; read-out: Residual enzymatic activity
T13 construct: purchased Reaction Biology Corporation
Method in brief: as §1

PIM2 = molecular target: T14, PIM2 (Homo sapiens, UniProt Q9P1W9); settings: 500 nM; relative to DMSO; read-out: Residual enzymatic activity
T14 construct: purchased Reaction Biology Corporation
Method in brief: as §1

MUSK = molecular target: T15, MUSK (Homo sapiens, UniProt O15146); settings: 500 nM; relative to DMSO; read-out: Residual enzymatic activity
T15 construct: purchased Reaction Biology Corporation
Method in brief: as §1

WNK1 = molecular target: T16, WNK1 (Homo sapiens, UniProt Q9H4A3); settings: 500 nM; relative to DMSO; read-out: Residual enzymatic activity
T16 construct: purchased Reaction Biology Corporation
Method in brief: as §1

AKT2 = molecular target: T17, AKT2 (Homo sapiens, UniProt P31751); settings: 500 nM; relative to DMSO; read-out: Residual enzymatic activity
T17 construct: purchased Reaction Biology Corporation
Method in brief: as §1

FER = molecular target: T18, FER (Homo sapiens, UniProt P16591); settings: 500 nM; relative to DMSO; read-out: Residual enzymatic activity
T18 construct: purchased Reaction Biology Corporation
Method in brief: as §1

ERK7/MAPK15 = molecular target: T19, ERK7/MAPK15 (Homo sapiens, UniProt Q8TD08); settings: 500 nM; relative to DMSO; read-out: Residual enzymatic activity
T19 construct: purchased Reaction Biology Corporation
Method in brief: as §1

TAOK2/TAO1 = molecular target: T20, TAOK2/TAO1 (Homo sapiens, UniProt Q9UL54); settings: 500 nM; relative to DMSO; read-out: Residual enzymatic activity
T20 construct: purchased Reaction Biology Corporation
Method in brief: as §1

MEK1 = molecular target: T21, MEK1 (Homo sapiens, UniProt Q02750); settings: 500 nM, relative to DMSO
T21 construct: purchased Reaction Biology Corporation
T21 sequence (Q02750 whole entry): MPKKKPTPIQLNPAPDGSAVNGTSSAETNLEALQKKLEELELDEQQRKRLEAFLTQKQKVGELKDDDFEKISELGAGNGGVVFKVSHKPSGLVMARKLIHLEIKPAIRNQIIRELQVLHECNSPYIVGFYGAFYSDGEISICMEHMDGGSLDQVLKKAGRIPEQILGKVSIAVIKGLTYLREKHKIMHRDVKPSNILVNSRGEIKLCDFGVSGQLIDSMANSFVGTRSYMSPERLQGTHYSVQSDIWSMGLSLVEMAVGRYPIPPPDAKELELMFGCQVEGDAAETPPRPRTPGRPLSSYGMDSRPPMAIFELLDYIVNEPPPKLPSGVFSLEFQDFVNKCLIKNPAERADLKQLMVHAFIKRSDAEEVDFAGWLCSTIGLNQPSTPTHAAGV
Method in brief: as §1

ROCK1 = molecular target: T22, ROCK1 (Homo sapiens, UniProt Q13464); settings: 500 nM; relative to DMSO; read-out: Residual enzymatic activity
T22 construct: purchased Reaction Biology Corporation
Method in brief: as §1

TNIK = molecular target: T23, TNIK (Homo sapiens, UniProt Q9UKE5); settings: 500 nM; relative to DMSO; read-out: Residual enzymatic activity
T23 construct: purchased Reaction Biology Corporation
Method in brief: as §1

ZAP70 = molecular target: T24, ZAP70 (Homo sapiens, UniProt P43403); settings: 500 nM; relative to DMSO; read-out: Residual enzymatic activity
T24 construct: purchased Reaction Biology Corporation
Method in brief: as §1

LATS1 = molecular target: T25, LATS1 (Homo sapiens, UniProt O95835); settings: 500 nM; relative to DMSO; read-out: Residual enzymatic activity
T25 construct: purchased Reaction Biology Corporation
Method in brief: as §1

EPHA7 = molecular target: T26, EPHA7 (Homo sapiens, UniProt Q15375); settings: 500 nM, relative to DMSO
T26 construct: purchased Reaction Biology Corporation
T26 sequence (Q15375 28-998): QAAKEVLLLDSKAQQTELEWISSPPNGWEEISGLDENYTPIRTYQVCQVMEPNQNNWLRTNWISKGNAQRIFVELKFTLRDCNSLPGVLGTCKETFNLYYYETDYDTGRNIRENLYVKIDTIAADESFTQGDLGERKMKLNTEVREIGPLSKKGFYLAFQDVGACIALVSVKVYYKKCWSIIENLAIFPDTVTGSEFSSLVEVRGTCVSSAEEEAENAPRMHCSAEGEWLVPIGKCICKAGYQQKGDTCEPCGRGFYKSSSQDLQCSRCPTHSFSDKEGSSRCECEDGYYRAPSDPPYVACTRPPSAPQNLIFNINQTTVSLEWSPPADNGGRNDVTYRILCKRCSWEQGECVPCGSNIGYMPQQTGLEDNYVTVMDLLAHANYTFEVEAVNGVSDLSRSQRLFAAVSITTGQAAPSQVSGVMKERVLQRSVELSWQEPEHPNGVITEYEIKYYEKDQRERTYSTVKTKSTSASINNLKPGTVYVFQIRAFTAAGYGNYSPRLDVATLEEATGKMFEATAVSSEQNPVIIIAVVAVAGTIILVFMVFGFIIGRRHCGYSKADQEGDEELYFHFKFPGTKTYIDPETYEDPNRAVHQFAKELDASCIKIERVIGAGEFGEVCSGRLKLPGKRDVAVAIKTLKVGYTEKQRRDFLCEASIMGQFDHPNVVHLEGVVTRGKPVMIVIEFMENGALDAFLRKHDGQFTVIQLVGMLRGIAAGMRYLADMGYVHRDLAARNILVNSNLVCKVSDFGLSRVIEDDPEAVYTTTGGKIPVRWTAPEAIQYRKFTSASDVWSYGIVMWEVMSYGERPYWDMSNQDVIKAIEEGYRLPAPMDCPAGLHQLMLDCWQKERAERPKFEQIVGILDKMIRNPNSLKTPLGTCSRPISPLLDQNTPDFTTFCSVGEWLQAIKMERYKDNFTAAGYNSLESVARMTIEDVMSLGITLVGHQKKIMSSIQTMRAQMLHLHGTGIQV
Method in brief: as §1

CDK16/cyclin Y = molecular target: T27, CDK16/cyclin Y (Homo sapiens, UniProt Q00536); settings: 500 nM; relative to DMSO; read-out: Residual enzymatic activity
T27 construct: purchased Reaction Biology Corporation
T27 sequence (Q00536 whole entry): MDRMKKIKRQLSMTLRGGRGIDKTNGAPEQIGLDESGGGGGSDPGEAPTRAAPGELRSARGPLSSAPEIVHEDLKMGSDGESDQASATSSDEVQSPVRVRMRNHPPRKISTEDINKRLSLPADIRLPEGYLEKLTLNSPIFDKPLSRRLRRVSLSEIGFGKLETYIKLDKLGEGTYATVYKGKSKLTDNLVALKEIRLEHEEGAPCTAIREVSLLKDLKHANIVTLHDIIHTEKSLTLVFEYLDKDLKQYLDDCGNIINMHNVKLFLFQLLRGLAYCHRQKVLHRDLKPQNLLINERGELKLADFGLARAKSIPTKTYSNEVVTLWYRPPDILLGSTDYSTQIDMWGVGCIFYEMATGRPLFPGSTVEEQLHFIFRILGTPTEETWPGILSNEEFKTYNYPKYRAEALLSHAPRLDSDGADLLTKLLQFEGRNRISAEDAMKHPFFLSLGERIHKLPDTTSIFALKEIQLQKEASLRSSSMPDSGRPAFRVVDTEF
T27 sequence (Q8ND76 whole entry partner): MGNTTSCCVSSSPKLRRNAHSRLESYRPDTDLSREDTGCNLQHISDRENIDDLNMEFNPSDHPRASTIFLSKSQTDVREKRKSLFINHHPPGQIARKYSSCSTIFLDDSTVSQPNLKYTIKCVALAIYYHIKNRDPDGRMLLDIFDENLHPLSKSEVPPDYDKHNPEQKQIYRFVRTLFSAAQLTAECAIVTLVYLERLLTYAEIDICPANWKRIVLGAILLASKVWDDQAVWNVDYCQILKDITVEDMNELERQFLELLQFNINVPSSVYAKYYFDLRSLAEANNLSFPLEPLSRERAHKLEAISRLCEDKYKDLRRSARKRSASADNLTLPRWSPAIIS
Method in brief: as §1

BTK = molecular target: T28, BTK (Homo sapiens, UniProt Q06187); settings: 500 nM; relative to DMSO; read-out: Residual enzymatic activity
T28 construct: purchased Reaction Biology Corporation
Method in brief: as §1

MARK4 = molecular target: T29, MARK4 (Homo sapiens, UniProt Q96L34); settings: 500 nM; relative to DMSO; read-out: Residual enzymatic activity
T29 construct: purchased Reaction Biology Corporation
Method in brief: as §1

GRK6 = molecular target: T30, GRK6 (Homo sapiens, UniProt P43250); settings: 500 nM; relative to DMSO; read-out: Residual enzymatic activity
T30 construct: purchased Reaction Biology Corporation
Method in brief: as §1

SNARK/NUAK2 = molecular target: T31, SNARK/NUAK2 (Homo sapiens, UniProt Q9H093); settings: 500 nM; relative to DMSO; read-out: Residual enzymatic activity
T31 construct: purchased Reaction Biology Corporation
Method in brief: as §1

MSSK1/STK23 = molecular target: T32, MSSK1/STK23 (Homo sapiens, UniProt Q9UPE1); settings: 500 nM; relative to DMSO; read-out: Residual enzymatic activity
T32 construct: purchased Reaction Biology Corporation
Method in brief: as §1

PDGFRb = molecular target: T33, PDGFRb (Homo sapiens, UniProt P09619)
T33 construct: purchased Reaction Biology Corporation (Malvern, PA, USA)
T33 sequence (P09619 33-1106): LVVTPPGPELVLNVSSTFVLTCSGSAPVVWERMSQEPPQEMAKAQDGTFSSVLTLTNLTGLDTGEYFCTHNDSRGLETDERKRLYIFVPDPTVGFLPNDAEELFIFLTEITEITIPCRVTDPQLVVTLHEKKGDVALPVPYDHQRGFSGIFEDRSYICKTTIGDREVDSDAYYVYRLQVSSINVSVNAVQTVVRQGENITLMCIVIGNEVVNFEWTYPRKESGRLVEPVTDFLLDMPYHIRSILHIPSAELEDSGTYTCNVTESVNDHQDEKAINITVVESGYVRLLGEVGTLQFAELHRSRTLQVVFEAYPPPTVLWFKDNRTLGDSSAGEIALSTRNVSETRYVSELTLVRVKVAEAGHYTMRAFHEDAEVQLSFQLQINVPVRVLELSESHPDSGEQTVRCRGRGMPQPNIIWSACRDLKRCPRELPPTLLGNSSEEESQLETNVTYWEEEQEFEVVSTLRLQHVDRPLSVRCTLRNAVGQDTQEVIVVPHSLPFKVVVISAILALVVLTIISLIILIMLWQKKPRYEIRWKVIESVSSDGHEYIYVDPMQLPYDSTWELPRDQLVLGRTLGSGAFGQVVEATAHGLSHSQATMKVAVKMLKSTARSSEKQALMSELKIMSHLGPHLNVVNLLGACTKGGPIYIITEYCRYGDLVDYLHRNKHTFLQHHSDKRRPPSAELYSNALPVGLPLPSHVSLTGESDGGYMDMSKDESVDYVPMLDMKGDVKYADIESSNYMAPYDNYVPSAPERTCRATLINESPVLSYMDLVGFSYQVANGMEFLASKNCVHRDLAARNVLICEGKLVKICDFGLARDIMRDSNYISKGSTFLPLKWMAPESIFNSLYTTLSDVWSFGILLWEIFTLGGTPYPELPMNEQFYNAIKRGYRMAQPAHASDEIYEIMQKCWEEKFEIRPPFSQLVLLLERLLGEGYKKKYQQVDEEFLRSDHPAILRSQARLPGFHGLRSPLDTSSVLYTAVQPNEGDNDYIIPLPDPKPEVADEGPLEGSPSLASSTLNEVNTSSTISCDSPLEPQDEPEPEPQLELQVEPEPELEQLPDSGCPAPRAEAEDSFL
Method in brief: as §1

CK1g1 = molecular target: T34, CK1g1 (Homo sapiens, UniProt Q9HCP0); settings: 500 nM; relative to DMSO; read-out: Residual enzymatic activity
T34 construct: purchased Reaction Biology Corporation
Method in brief: as §1

p70S6K/RPS6KB1 = molecular target: T35, p70S6K/RPS6KB1 (Homo sapiens, UniProt P23443); settings: 500 nM; relative to DMSO; read-out: Residual enzymatic activity
T35 construct: purchased Reaction Biology Corporation
Method in brief: as §1

ERK1 = molecular target: T36, ERK1 (Homo sapiens, UniProt P27361); settings: 500 nM; relative to DMSO; read-out: Residual enzymatic activity
T36 construct: purchased Reaction Biology Corporation
Method in brief: as §1

DYRK3 = molecular target: T37, DYRK3 (Homo sapiens, UniProt O43781); settings: 500 nM; relative to DMSO; read-out: Residual enzymatic activity
T37 construct: purchased Reaction Biology Corporation
Method in brief: as §1

EPHA3 = molecular target: T38, EPHA3 (Homo sapiens, UniProt P29320); settings: 500 nM; relative to DMSO
T38 construct: purchased Reaction Biology Corporation
Method in brief: as §1

CDK5/p35 = molecular target: T39, CDK5/p35 (Homo sapiens, UniProt Q00535); settings: 500 nM; relative to DMSO; read-out: Residual enzymatic activity
T39 construct: purchased Reaction Biology Corporation
Method in brief: as §1

[1] = 500 nM, relative to DMSO, read-out: Residual enzymatic activity
[2] = 10-dose mode, threefold serial dilution from 10 μM
[3] = read-out: Residual enzymatic activity

## COc1cc(Nc2ncnc(Nc3cc4c(cn3)NC(=O)C(C)(C)O4)n2)cc(OC)c1OC [MT-SYK-03]
SGK3/SGKL
  remaining activity at 0.5 µM: 103%
MST1/STK4
  remaining activity at 0.5 µM: 94.2%
MEKK1
  remaining activity at 0.5 µM: 105%
RSK4
  remaining activity at 0.5 µM: 99.7%
CDK1/cyclin E
  remaining activity at 0.5 µM: 94.6%
FAK/PTK2
  remaining activity at 0.5 µM: 87.4%
MRCKb/CDC42BPB
  remaining activity at 0.5 µM: 103%
MLK2/MAP3K10; [1]
  remaining activity at 0.5 µM: 7.5%
MLK2/MAP3K10; [2]
  IC50: 4.3 nM
MLK2/MAP3K10; read-out: Inhibition at 500 nM
  inhibition at 0.5 µM: > 90%
DYRK2
  remaining activity at 0.5 µM: 104%
PDK1/PDPK1
  remaining activity at 0.5 µM: 85.5%
p70S6Kb/RPS6KB2
  remaining activity at 0.5 µM: 91.4%
LIMK1; [1]
  remaining activity at 0.5 µM: 11.4%
LIMK1; [2]
  IC50: 45 nM and 44.6 nM
CDK1/cyclin A
  remaining activity at 0.5 µM: 110%
PIM2
  remaining activity at 0.5 µM: 97.2%
MUSK
  remaining activity at 0.5 µM: 79.9%
WNK1
  remaining activity at 0.5 µM: 106%
AKT2
  remaining activity at 0.5 µM: 106%
FER
  remaining activity at 0.5 µM: 78.8%
ERK7/MAPK15
  remaining activity at 0.5 µM: 100%
TAOK2/TAO1
  remaining activity at 0.5 µM: 105%
MEK1
  Residual enzymatic activity: did not inhibit any
MEK1; [3]
  remaining activity at 0.5 µM: 107%
ROCK1
  remaining activity at 0.5 µM: 95.1%
TNIK
  remaining activity at 0.5 µM: 78.6%
ZAP70
  remaining activity at 0.5 µM: 93.4%
LATS1
  remaining activity at 0.5 µM: 99.4%
EPHA7
  Residual enzymatic activity: 58.4%
EPHA7; [3]
  remaining activity at 0.5 µM: > 54%
CDK16/cyclin Y
  remaining activity at 0.5 µM: 95.8%
BTK
  remaining activity at 0.5 µM: 51.3%
MARK4
  remaining activity at 0.5 µM: 92.1%
GRK6
  remaining activity at 0.5 µM: 100%
SNARK/NUAK2
  remaining activity at 0.5 µM: 102%
MSSK1/STK23
  remaining activity at 0.5 µM: 106%
PDGFRb; [1]
  remaining activity at 0.5 µM: 24.5%
PDGFRb; [2]
  IC50: 4.5 nM
CK1g1
  remaining activity at 0.5 µM: 93.5%
p70S6K/RPS6KB1
  remaining activity at 0.5 µM: 98.3%
ERK1
  remaining activity at 0.5 µM: 119%
DYRK3
  remaining activity at 0.5 µM: 91.6%
EPHA3
  Residual enzymatic activity: 91.8%
CDK5/p35
  remaining activity at 0.5 µM: 101%

— article PMC8632988, “Inhibition of SYK and cSrc kinases can protect bone and cartilage in preclinical models of osteoarthritis and rheumatoid arthritis” (Scientific Reports, 2021)
